Results from patent publication EP0201359A2, “Use of phthalide isoquinoline derivatives for treatments inhibiting the formation of lipid peroxides” (MITSUBISHI KASEI CORPORATION, priority 1985, dated 1986).
Where two headings read alike, the source gives them in different places.

Columns and labels:
rat liver microsome = experiment: Formation of lipid peroxide in vitro in rat liver microsome (TBA method); type: biochemical
Method: Lipid peroxide was produced in vitro by using rat liver microsome. The microsome was prepared in a usual method from rat starved for 24 hours, and the final concentration thereof was adjusted to 15 - 18 mg proteins/ml.
To the thus prepared microsome was added Fe(N03)3, ADP (adenosine diphosphate), NADPH (nicotinamide adenine dinucleotide phosphate), glucose 6-phosphate and glucose 6-phosphate dehydrogenase so that the final concentrations of these additives were 200 uM, 7 mM, 7.5 mM, 20 mM and 2.0 U.I., respectively.
The resultant mixture was incubated at 37°C to produce the lipid peroxide. The activity of compound No. 1 and vitamin E to inhibit the formation of the lipid peroxide was measured. The quantity of the lipid peroxide was determined in accordance with TBA method (thiobarbiturate method, "Biochemical Medicine", Vol. 15, p. 212 (1976)) and expressed in terms of MDA (malon dialdehyde) amount (nmol) in 1 mg of protein.

isolated hepatocytes = experiment: Formation of lipid peroxide in isolated hepatocytes after addition of carbon tetrachloride; type: cell-based, rat; details: Concentration 10 µM, carbon tetrachloride 5 mM; for inhibition at 10 µM: Rattus norvegicus, Hepatocyte, 3 hours, read-out: Free MDA (3 hours) % Inhibition
Method: Lipid peroxide was produced in vitro in cell membranes by using hepatocytes isolated by means of collagenase.
The isolated hepatocytes were prepared by the method of collagenase perfusion from the liver of rat which was fed for one week with phenobarbital in drinking water. The isolated hepatocytes (1 x 10^6 cells/ml Hanks solution containing 1 % BSA and 10 mM HEPES, pH 7.4) were taken into a conical flask in which test compounds were placed. Then, the cells were incubated at 37°C and produced the lipid peroxide by the addition of carbon tetrachloride (5 mM).
The activity of the compounds shown in Table I and vitamin E to inhbit the formation of the lipid peroxide was measured. The amount of the lipid peroxide was determined in accordance with the method of Mihara et al. (Yakugaku Zasshi; Journal of the Pharmaceutical Society of Japan, Vol. 102, No. 7, 670-677 (1982)) and expressed in terms of inhibition rate (%) of the formation of lipid peroxide after the addition of carbon tetrachloride.

[1] = test system: liver of the carbon tetrachloride-treated rat; experiment: Lipid peroxide in the liver of carbon tetrachloride-treated rat, oral administration; type: in vivo; details: 24 hours after CCl4
Method: The lipid peroxide in the liver of the rat treated with CC14 increases. Carbon tetrachloride of 25 % V/V in olive oil was administered orally to rats by the dose of 2 ml/kg. After 24 hours, the amount of the lipid peroxide in the liver of the carbon tetrachloride-treated rat was increased to approx. 6 times higher than untreated rat. The amount of the lipid peroxide was determined by the method of Mihara et al. as in Example 3 and was expressed in terms of MDA amount (nmol) in 1 g of liver. The activity of compound No. 1 and vitamin E to inhibit the formation of the lipid peroxide was measured. Compound No. 1 was orally administered to the carbon tetrachloride-treated rat in the form of suspension in the surfactant "Tween 80" by the amount of 25, 50 or 100 mg/kg/day nine days before the treatment of carbon tetrachloride.

[2] = test system: rat polymorphonuclear leukocytes (PMN); experiment: Production of O2- by polymorphonuclear leukocytes stimulated with PMA (cytochrome C reduction); type: cell-based; details: Leukocyte, PMA 125 ng/ml; for inhibition at 3.3 µM: Conc. 3.3 µM; for inhibition at 10 µM: Conc. 10.0 µM; for inhibition at 33 µM: Conc. 33.0 µM
Method: In 20 hours after injection of 10 ml of 1 % casein into the abdominal cavity of a […], many polymorphonuclear leukocytes appear in the cavity. An activity of the polymorphonuclear leukocytes can be determined in an in vitro system. Briefly stated, addition of phorbol myristate acetate, PMA, as a stimulant into a test tube containing a buffer and the polymorphonuclear leukocytes induces the production of O2^- by the polymorphonuclear leukocytes. […] See Wei Hsueh et al., Nature, 290 (23), 710-713 (1981).
Thus, measurements were carried out using rat polymorphonuclear leukocytes (PMN) induced by 1 % casein and PMA (phorbol-12-myristate-13-acetate) as a stimulant. First, 1,830 µl of phosphate buffer, pH 7,4, 50 µl of cytochrome C (Cyt C) in BSA, 20 µl of a sample (compound) and 50 µl of PMN were stirred at 37°C. After adding 50 µl of PMA to a final concentration of 125 ng/ml, the change of Cyt C reduction was traced by an absorption at 550 nm. The number of PMN per tube was 2 x 10^6 cells.

Mast cells = experiment: Histamine release from mast cells stimulated with compound 48/80 or ascarid protein; type: cell-based, male Wistar rats; details: compound 48/80 and protein from epidermis of ascarid as stimulants
Method: Histamine release can be experimentally investigated in vitro with use of mast cells derived from rat's abdominal cavity. Thus, after the mast cells are pre-incubated in the presence of an IgE antibody, e.g. IgE antibody prepared by sensitization of rabbit with a protein derived from the epidermis of ascarid, addition of a corresponding IgE antigen, e.g. the protein prepared from the epidermis of ascarid, induces the release of histamine from the mast cells. Such release of histamine can also be induced by addition of an artificial stimulant compound 48/80, ATP (adenosine triphosphate) to mast cells.
Mast cells were collected from the abdominal cavity of male Wistar rats of 400 - 450 g in body weight in a conventional manner. After pre-incubation of 5 x 10^4 cells in Krebs-Ringer buffer, pH 7.4, for 10 minutes, 0,1 µg/ml of the compound 48/80 was added. After incubation for an additional 10 minutes, the cells were removed by centrifugation at 3,000 rpm for 5 minutes. Thereafter, histamine in the supernatant was quantitatively measured according to Shore's method described in J. Phar. […] As a control, total amount of histamine contained in mast cell was measured. A ratio of the amount of histamine released after the treatment with the compound 48/80 as a stimulant to the total amount of histamine as the control was calculated according to the following equation : [formula]

[3] = Plasma concentration (AUC) after oral administration to beagle dogs, after fast or after diet; type: in vivo; details: male, dog, 200 mg/kg, 30 minutes after diet, dogs No. 1-5 and mean in last row, read-out: AUC of tritoqualine concentration in blood for 5 hours
Method: Tritoqualine was orally administered to male beagle dogs, […], body weight of 9.5 - 12 kg, Hazleton, after fast or 30 minutes after diet in a dose of 200 mg/kg.
Tritoqualine had been subjected to micronization by a jet mill PJM-100NP, NIHON NEWMATIC KOGYO KK, JAPAN (10 % or more of 3 microns or less, 80 % of 3-15 microns and 10 % or less of 15 microns or more; average of 7 microns) or a screen of 100 mesh under. The obtained particles were suspended in aqueous 1 % Tween 80 solution before use. […]
Before the administration, and 0.5, 1, 2, 3 and 5 hours after the administration, 1 ml of blood was taken out of the vein of front leg, placed into a BHA-coated centrifugal tube "VENOJECT" containing heparin, TERMO INC., and centrifuged. Hundred microliters of the thus obtained plasma was placed into a small glass test tube, which had been coated with 1 microgram of BHA. Into the tube were added 190 microliters of noscapine (100 micrograms in ml of acetonitrile) as an internal standard and 10 microliters of acetonitrile. After blending for one minute, the mixture was centrifuged at 3,000 rpm for 5 minutes. The resulting supernatant was subjected to HPLC under the conditions described below.
The quantitative measurements of tritoqualine in the plasma were carried out according to the internal standard method. The area under curve (AUC) was calculated by the trapezoidal rule. […]

[4] = test system: patients suffering from chronic hepatitis; experiment: Clinical investigation in chronic hepatitis, oral administration for 8 weeks after every diet; type: in vivo; details: for improvement of liver functions (patients): 8 weeks
Method: To patients suffering from chronic hepatitis tritoqualine was administered orally for 8 weeks continuously in a daily dose of 150 or 300 mg after every diet.
Glutamate oxaloacetate transaminase (GOT) and glutamate pyruvate transaminase (GPT) were measured just before the first administration, and 4 and 8 weeks after the first administration.
During the above investigations, there were few cases where slight side effects such as dizziness and nausea, which were suspected to have a relation with the administered drug, appeared : in one case among 65 cases administered in a dose of 150 mg, i.e. 1.5 %; and 8 cases among 137 cases in a dose of 300 mg, i.e. 5.8 %.
When tritoqualine was administered in a dose of 600 mg in the same manner as described above, side effects appeared in 24 cases among 164 cases, i.e. 14.6 %.

[5] = test system: patients with chronic active hepatitis; details: daily dosages 600 to 1600 mg, 13 patients; particularly at 1200-1600 mg/day; cited from earlier work
[6] = 10 µM, Incubation Period 10 min
[7] = 100 µM, Incubation Period 5 min
[8] = 100 µM, Incubation Period 10 min

With `CCOc1c(N)c2c(c(OCC)c1OCC)C(C1c3c(cc4c(c3OC)OCO4)CCN1C)OC2=O` (stereo not drawn) [Compound No. 1, 7-amino-4,5,6-triethoxy-3-(5,6,7,8-tetrahydro-4-methoxy-6-methyl-1,3-dioxolo(4,5-g)isoquinolin-5-yl)phthalide] the “MDA Amount Produced” value (rat liver microsome; 3.3 µM, Incubation Period 5 min) was 1.80 ± 0.12 nmol/mg of protein, the “MDA Amount Produced” value (rat liver microsome; 3.3 µM, Incubation Period 10 min) was 2.25 ± 0.21 nmol/mg of protein and the “MDA Amount Produced” value (rat liver microsome; 10 µM, Incubation Period 5 min) was 1.71 ± 0.12 nmol/mg of protein. The “MDA Amount Produced” value (rat liver microsome; [6]) was 1.80 ± 0.06 nmol/mg of protein, the “MDA Amount Produced” value (rat liver microsome; 33 µM, Incubation Period 5 min) was 1.50 ± 0.05 nmol/mg of protein and the “MDA Amount Produced” value (rat liver microsome; 33 µM, Incubation Period 10 min) was 1.62 ± 0.02 nmol/mg of protein. For the same compound, the “MDA Amount Produced” value (rat liver microsome; [7]) was 1.37 ± 0.02 nmol/mg of protein, the “MDA Amount Produced” value (rat liver microsome; [8]) was 1.37 ± 0.05 nmol/mg of protein and the inhibition at 10 µM (isolated hepatocytes) was 77.3%. The “MDA Amount Produced” value ([1]; 25 mg/kg oral) was 333.0 ± 54.3 nmol/g of liver, the “MDA Amount Produced” value ([1]; 50 mg/kg oral) was 328.5 ± 50.8 nmol/g of liver and the “MDA Amount Produced” value ([1]; 100 mg/kg oral) was 171.0 ± 23.6 nmol/g of liver. The inhibition at 3.3 µM [2] was 15.4%, the inhibition at 10 µM [2] was 53.9% and the inhibition at 33 µM [2] was 58.8%. The IC50 [2] was 15.9 µM and the “inhibiting activity to the histamine release” value (Mast cells) was “strong inhibiting activity”.

`COc1ccc2c(c1OC)C(=O)OC2C1c2c(cc3c(c2OC)OCO3)CCN1C` (stereo not drawn) [compound 2] gave an inhibition at 10 µM (isolated hepatocytes) of 42.4%.

In the case of `CCOc1c(N)c2c(c(OCC)c1OCC)C(C1c3c(cc(OC)c4c3OCO4)CCN1C)OC2=O` (stereo not drawn) [compound 3], the inhibition at 10 µM (isolated hepatocytes) is reported as 76.9%, the inhibition at 3.3 µM [2] is reported as 34.9% and the inhibition at 10 µM [2] is reported as 59.9%. The inhibition at 33 µM [2] was 66.2%, the IC50 [2] was 7.2 µM and the “inhibiting activity to the histamine release” value (Mast cells) was “strong inhibiting activity”.

In the case of `CCOc1c(OCC)c2c(c([N+](=O)[O-])c1OCC)C(=O)OC2C1c2c(cc3c(c2OC)OCO3)CCN1C` (stereo not drawn) [compound 4], the inhibition at 10 µM (isolated hepatocytes) is reported as 28.6%.

Work on `CCOc1c(N)c2c(c(OCC)c1OCC)C(C1c3c(cc4c(c3OC)OCO4)CCN1CC)OC2=O` (stereo not drawn) [compound 5, 2-ethyl-6,7-methylenedioxy-8-methoxy-1-(4,5,6-triethxy-7-amino-3-phthalidyl)-1,2,3,4-tetrahydroisoquinoline] yielded an inhibition at 10 µM (isolated hepatocytes) of 68.6%, an inhibition at 3.3 µM [2] of 49.2% and an inhibition at 10 µM [2] of 65.8%. It also gave an inhibition at 33 µM [2] of 60.3% and an IC50 [2] of 1.8 µM.

Work on `CCOc1c(N)c2c(c(OCC)c1OCC)C(C1c3cc(OC)c(OC)cc3CCN1C)OC2=O` (stereo not drawn) [compound 6] yielded an inhibition at 10 µM (isolated hepatocytes) of 47.6%, an inhibition at 3.3 µM [2] of 0.9% and an inhibition at 10 µM [2] of 14%. It also gave an inhibition at 33 µM [2] of 41.1% and an IC50 [2] of 45.1 µM.

With `CCOc1c(N)c2c(c(OCC)c1OCC)C(C1c3c(cc4c(c3OC)OCO4)CCN1C)OC2=O` (stereo not drawn) [tritoqualine, 7-amino-4,5,6-triethoxy-3-(5,6,7,8-tetrahydro-4-methoxy-6-methyl-1,3-dioxolo(4,5-g)isoquinolin-5-yl)phthalide] the AUC ([3]; 100 mesh under 200 mg/kg oral) was 187 ng·h/mL, the AUC ([3]; Micronisation 200 mg/kg oral) was 674 ng·h/mL and the “improvement of liver functions (patients)” value ([4]; daily dose 150 mg oral, 27 among 62 patients) was 44.3%. The “improvement of liver functions (patients)” value ([4]; daily dose 300 mg oral, 79 among 135 patients) was 61.2%, the “side effects such as dizziness and nausea (cases)” value ([4]; dose of 150 mg, one case among 65 cases) was 1.5% and the “side effects such as dizziness and nausea (cases)” value ([4]; dose of 300 mg, 8 cases among 137 cases) was 5.8%. The “side effects (cases)” value ([4]; dose of 600 mg, 24 cases among 164 cases) was 14.6%, the “fibrosis with cellular infiltration on biopsied liver specimens” value [5] was “reduction of fibrosis” and the liver functions [5] was “marked improvement”.

In the case of Vitamin E [reference compound], the “MDA Amount Produced” value (rat liver microsome; [6]) is reported as 2.37 ± 0.21 nmol/mg of protein, the “MDA Amount Produced” value (rat liver microsome; [7]) is reported as 2.06 ± 0.001 nmol/mg of protein and the “MDA Amount Produced” value (rat liver microsome; [8]) is reported as 2.62 ± 0.07 nmol/mg of protein. For the same compound, the “MDA Amount Produced” value (rat liver microsome; 1000 µM, Incubation Period 5 min) was 2.06 ± 0.016 nmol/mg of protein, the “MDA Amount Produced” value (rat liver microsome; 1000 µM, Incubation Period 10 min) was 2.29 ± 0.14 nmol/mg of protein and the “Free MDA (3 hours) % Inhibition” value (isolated hepatocytes) was 13%. For the same compound, the “MDA Amount Produced” value ([1]; 50 mg/kg oral) was 104.0 ± 18.4 nmol/g of liver.
